Data set [1] deals with BMMC. Description: Cytotoxicity against C57BL/6J mouse BMMC upto 20 uM incubated for 4 days by CCK-8 assay. Particulars: 96 h, time 4 day. The class given is toxicity, cell-based.
The subject of data set [2] is BMMC. As to the kind of experiment: Inhibition of osteoclast differentiation in M-CSF/RANKL induced C57BL/6J mouse BMMC at 10 uM medium changed every other day and measured after 7 days by TRAP staining based assay. Particulars: time 7.0 day. The class given is functional, cell-based.
Data set [3] deals with BMMC. Description: Inhibition of bone resorption in RANKL induced C57BL/6J mouse BMMC at 5 to 10 uM by Cytation-5 staining based assay. In kind it is functional, cell-based. The following applies: dose 5-10 µM.
The test system of data set [4] is BMMC. Description: Inhibition of F-actin ring formation in RANKL induced C57BL/6J mouse BMMC at 5 to 10 uM medium changed every other day by Hoechst 33342 and TRITC-labeled phalloidin staining based assay. In kind it is functional, cell-based. The following applies: dose 5-10 µM.

The values below come from ChEMBL document CHEMBL5608230, “Systematical Mutational Analysis of FRATtide against Osteoclast Differentiation by Alanine Scanning” (ACS Med Chem Lett, 2024).

Active and inactive are the calls of the source. No cut-off for these calls is given here.

Turning to Ac-APHRLLQQLVLSGNLIKEAVRRLHSR-NH2, the Activity result in data set [1] is “Non-Toxic”.
Turning to Ac-DAHRLLQQLVLSGNLIKEAVRRLHSR-NH2, the Activity result in data set [1] is reported as “Non-Toxic”.
Turning to Ac-DPARLLQQLVLSGNLIKEAVRRLHSR-NH2, the Activity result in data set [1] is on record as “Non-Toxic”.
Still for that read-out and setting: as for Ac-DPHALLQQLVLSGNLIKEAVRRLHSR-NH2, the entry is “Non-Toxic”; as for Ac-DPHRALQQLVLSGNLIKEAVRRLHSR-NH2, “Non-Toxic”.
On the same count and under the same terms, in the case of Ac-DPHRLAQQLVLSANLIKEAVARLHSR-NH2 it was “Non-Toxic”.
In the case of Ac-DPHRLAQQLVLSGNLIKEAVRRLHSR-NH2, in data set [2], the inhibition entry is “Active”. Moreover, the Activity result in data set [1] was “Non-Toxic”.
On to Ac-DPHRLLAQLVLSGNLIKEAVRRLHSR-NH2, for which the Activity result in data set [1] is listed as “Non-Toxic”.
The same measure, in the same setting: as for Ac-DPHRLLQALVLSGNLIKEAVRRLHSR-NH2, the entry is “Non-Toxic”; as for Ac-DPHRLLQQAVLSGNLIKEAVRRLHSR-NH2, “Non-Toxic”.
Still for that read-out and setting: in the case of Ac-DPHRLLQQLALSGNLIKEAVRRLHSR-NH2 it was “Non-Toxic”.
The same measure, in the same setting: as for Ac-DPHRLLQQLVASGNLIKEAVRRLHSR-NH2, the entry is “Non-Toxic”.
Consider Ac-DPHRLLQQLVLAGNLIKEAVRRLHSR-NH2, for which the Activity entry in data set [1] is given as “Non-Toxic”.
Take Ac-DPHRLLQQLVLSANLIKEAVRRLHSR-NH2: the inhibition result in data set [2], in data set [3] and in data set [4] was “Active” throughout. In addition, the Activity result in data set [1] was “Non-Toxic”.
As to Ac-DPHRLLQQLVLSGALIKEAVRRLHSR-NH2, the Activity entry in data set [1] is “Non-Toxic”.
Same read-out and setting: as for Ac-DPHRLLQQLVLSGNAIKEAVRRLHSR-NH2, the entry is “Non-Toxic”; as for Ac-DPHRLLQQLVLSGNLAKEAVRRLHSR-NH2, “Non-Toxic”; as for Ac-DPHRLLQQLVLSGNLIAEAVRRLHSR-NH2, “Non-Toxic”.
Same read-out and setting: in the case of Ac-DPHRLLQQLVLSGNLIKAAVRRLHSR-NH2 it was “Non-Toxic”; in that of Ac-DPHRLLQQLVLSGNLIKEAARRLHSR-NH2, “Non-Toxic”.
On to Ac-DPHRLLQQLVLSGNLIKEAVARLHSR-NH2, for which the inhibition result in data set [2], in data set [3] and in data set [4] was “Active” throughout. Also, the Activity result in data set [1] is reported as “Non-Toxic”.
As to Ac-DPHRLLQQLVLSGNLIKEAVRALHSR-NH2, in data set [1], the Activity result is given as “Non-Toxic”.
Consider Ac-DPHRLLQQLVLSGNLIKEAVRRAHSR-NH2, for which, in data set [1], the Activity result is recorded as “Non-Toxic”.
Still for that read-out and setting: as for Ac-DPHRLLQQLVLSGNLIKEAVRRLASR-NH2, the entry is “Non-Toxic”; as for Ac-DPHRLLQQLVLSGNLIKEAVRRLHAR-NH2, “Non-Toxic”; as for Ac-DPHRLLQQLVLSGNLIKEAVRRLHSA-NH2, “Non-Toxic”.
On to Ac-DPHRLLQQLVLSGNLIKEAVRRLHSR-NH2, for which the inhibition entry in data set [2] is “Active”. In addition, in data set [1], the Activity result is on record as “Non-Toxic”.
